Laboratory results reported in PMC10714743, “TrCla4 promotes actin polymerization at the hyphal tip and mycelial growth in Trichophyton rubrum” (Microbiology Spectrum, 2023).

Columns and labels:
TrCla4 [1] = molecular target: T1, TrCla4 (Trichophyton rubrum, UniProt F2SMN8); assay: Kinase-Glo ATP consumption assay of immunoprecipitated 3xHA-TrCla4 with recombinant TrRac; type: biochemical
T1 construct: gene TERG_04196; 3xHA-TrCla4 immunoprecipitated from T. rubrum; with TrRac
T1 sequence (F2SMN8 1-888): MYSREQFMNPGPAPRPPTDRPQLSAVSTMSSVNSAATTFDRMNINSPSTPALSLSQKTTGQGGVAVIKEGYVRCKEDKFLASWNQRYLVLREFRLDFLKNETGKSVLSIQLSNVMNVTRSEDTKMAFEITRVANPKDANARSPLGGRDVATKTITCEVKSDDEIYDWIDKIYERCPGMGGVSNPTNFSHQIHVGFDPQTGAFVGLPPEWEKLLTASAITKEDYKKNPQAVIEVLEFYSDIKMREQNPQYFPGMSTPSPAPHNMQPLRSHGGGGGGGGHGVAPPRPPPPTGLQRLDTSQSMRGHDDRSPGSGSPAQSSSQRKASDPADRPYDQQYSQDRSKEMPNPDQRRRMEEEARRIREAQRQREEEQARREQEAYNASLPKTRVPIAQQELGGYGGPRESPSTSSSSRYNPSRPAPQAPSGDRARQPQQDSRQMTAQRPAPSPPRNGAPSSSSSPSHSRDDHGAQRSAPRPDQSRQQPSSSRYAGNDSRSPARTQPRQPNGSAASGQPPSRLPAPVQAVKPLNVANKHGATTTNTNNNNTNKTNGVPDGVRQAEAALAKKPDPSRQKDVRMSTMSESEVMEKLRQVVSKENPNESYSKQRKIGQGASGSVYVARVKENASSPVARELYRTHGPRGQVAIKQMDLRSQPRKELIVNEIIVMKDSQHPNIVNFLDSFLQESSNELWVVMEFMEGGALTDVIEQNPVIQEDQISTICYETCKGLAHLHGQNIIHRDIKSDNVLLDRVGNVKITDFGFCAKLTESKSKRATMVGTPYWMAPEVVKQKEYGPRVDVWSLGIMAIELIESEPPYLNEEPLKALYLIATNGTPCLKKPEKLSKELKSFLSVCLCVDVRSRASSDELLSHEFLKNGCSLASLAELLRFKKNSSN

TrCla4 [2] = molecular target: T2, TrCla4 (Trichophyton rubrum, UniProt F2SMN8); assay: pull-down of purified GTPγS-TrRac by Tf-TrCla4 with IPA-3; also Kinase-Glo assay of immunoprecipitated 3xHA-TrCla4; type: biochemical
T2 construct: gene TERG_04196; His-, Tf- and Flag-tagged TrCla4 (E. coli BL21 lysate, Ni NTA pull-down); also immunoprecipitated 3xHA-TrCla4

Structure (SMILES) | Kinase-Glo ATP consumption assay of immunoprecipitated 3xHA-TrCla4 with recombin (TrCla4 [1]) | IC50 (TrCla4 [2]) [nM]
CCn1c(=O)c(-c2ccc(Cl)cc2Cl)cc2cnc(Nc3ccc(N4CCNCC4)c(F)c3)nc21 [FRAX486] | Both FRAX486 and IPA-3 inhibited the TrRac-dependent ATPase activity of 3xHA-TrCla4 (Fig. 5D). | 
Oc1ccc2ccccc2c1SSc1c(O)ccc2ccccc12 [IPA-3] |  | 2300
